This is an account of results in patent US8648205B2, “Metal complexes of N-heterocyclic carbenes” (The University of Akron, priority 2003, dated 2014).

The nature of data set [1]: solubility. Particulars: 37: bromide salt; 20a, 20b: bromide salts.
The nature of data set [2]: stability (air, light, water, chloride, storage). Particulars: 37: bromide salt; 20a, 20b: bromide salts.
Data set [3] deals with Stenotrophomonas maltophilia. Kind of data set: Efficacy data MIC and MBC (Table 7). In kind it is cell-based. Particulars: isolate SM AH08.
The subject of data set [4] is Yersinia pestis. In words: microbe, parasite or virus in culture. The format is cell-based.
In data set [5] the test system is Pseudomonas aeruginosa. In words: Efficacy data MIC and MBC (Table 7). In kind it is cell-based.
Data set [6] deals with Alcaligenes xylosoxidans. In words: Efficacy data MIC and MBC (Table 7). In kind it is cell-based.
Data set [7] concerns Methicillin resistant Staphylococcus aureus (MRSA). Kind of data set: Efficacy data MIC and MBC (Table 7). In kind it is cell-based.
Data set [8] concerns Escherichia coli. In words: Efficacy data MIC and MBC (Table 7). The format is cell-based.
For data set [9], the system named is Pseudomonas aeruginosa.
Data set [10] deals with E. coli (ATCC 8739). In words: MIC test in LB broth comparing AgNO3 and complex 106. The format is cell-based. Set-up: key: +=growth; −=no growth.
The test system of data set [11] is S. aureus (ATCC 6538). The description is as above. In kind it is cell-based. Set-up: key: +=growth; −=no growth.
Data set [12] deals with Staphylococcus aureus. In kind it is cell-based. Particulars: 0.5% solution, 20 μL on 6 mm filter paper disc, over night. As for the experimental part: (§1) In this test, a filter paper disc of 6 mm diameter was soaked with 20 μL of a silver compound of known concentration, and placed over a lawn of an organism in the agar plate. The diameter of the area in which growth of the organism is inhibited by the test solution was measured after an over night incubation as a measure of the relative antimicrobial activity of the silver compounds. The test organisms were Escherichia coli, Staphylococcus aureus, and Pseudomonas aeruginosa.

Data set [13] concerns Escherichia coli. The format is cell-based. The following applies: 0.5% solution, 20 μL on 6 mm filter paper disc, over night. As for the experimental part: as §1
In data set [14] the test system is Pseudomonas aeruginosa. In kind it is cell-based. Particulars: 0.5% solution, 20 μL on 6 mm filter paper disc, over night. As for the experimental part:
as §1

In data set [15] the test system is Escherichia coli.
The test system of data set [16] is P. aeruginosa (ATCC 9027). Kind of data set: MIC test in LB broth comparing AgNO3 and complex 106. The format is cell-based. Also on record: key: +=growth; −=no growth.
Data set [17] deals with Staphylococcus aureus. Particulars: Day 1.
Setting [18] is: Day 1, supernatant undiluted (Ag: 103 1186, 105 1125, AgN03 3176).
Setting [19] is: Day 2, supernatant undiluted (Ag: 103 1186, 105 1125, AgN03 3176).
[20] abbreviates: Day 1, 1DF: AgNO3 1731.18, 106 1675.74 μg/mL.
Where [21] appears, read: Day 1, 2DF: AgNO3 865.59, 106 837.87 μg/mL.
Setting [22] is: Day 1, 3DF: AgNO3 432.79, 106 418.94 μg/mL.
[23] abbreviates: Day 1, 4DF: AgNO3 216.40, 106 209.47 μg/mL.
[24] abbreviates: Day 1, undiluted: AgNO3 0.50 wt/V % (3462.35 μg/mL), 106 1.38 wt/V % (3341.48 μg/mL).
Setting [25] is: Day 2, 1DF: AgNO3 1731.18, 106 1675.74 μg/mL.
[26] abbreviates: Day 2, 2DF: AgNO3 865.59, 106 837.87 μg/mL.
Where [27] appears, read: Day 2, 3DF: AgNO3 432.79, 106 418.94 μg/mL.
Where [28] appears, read: Day 2, 4DF: AgNO3 216.40, 106 209.47 μg/mL.
Where [29] appears, read: Day 2, undiluted: AgNO3 0.50 wt/V % (3462.35 μg/mL), 106 1.38 wt/V % (3341.48 μg/mL).

≈ marks a conversion by molar mass, not a printed value. Read-outs that look alike come from different tables or passages of the source.

For `OCCN1C=CN(CN2C=CN(CCO)C2)C1` [Formula 13], the “solubility in water / aqueous media” value in [1] was “water soluble”.

For the molecule `CN1c2c(n(C)c(=O)n(C)c2=O)N(C)[CH]1[Ag][CH]1N(C)c2c(n(C)c(=O)n(C)c2=O)N1C` (stereo not shown) [Formula 97a], in [2], the stability in water result is on record as “stable in water for five days”.

Take `CC(C)Cc1ccc(C(C)C(=O)[O][Ag][c]2n(C)c3c(=O)n(C)c(=O)n(C)c3[n+]2C)cc1` (stereo not shown) [SCC1-IBU]: the MBC in data set [3] was determined as 2 µg/mL; in [4] (isolate YP1-1CO92-LCR-), 2 µg/mL; in data set [5] (isolate PA 01-V), 6 µg/mL; in data set [5] (isolate PA HP3) it was 2 µg/mL; in data set [5] (isolate PA LF05), 1 µg/mL; in [5] (isolate PA M57-15), 2 µg/mL. Besides, the MBC in data set [5] (isolate PA RR05) amounted to 2 µg/mL; in [6] (isolate AX 22) it was 2 µg/mL; in [6] (isolate AX RE05), 2 µg/mL; in [7] (isolate SA EH06) it was 4 µg/mL; in data set [7] (isolate SA LL06) it was 6 µg/mL; in [8] (isolate J53) it was 0.5 µg/mL. Moreover, in [8] (isolate J53 + pMG101), the MBC is above 20 µg/mL. Moreover, the MIC in [3] was 1 µg/mL; in data set [4] (isolate YP1-1CO92-LCR-) it was 0.5 µg/mL; in data set [5] (isolate PA 01-V), 2 µg/mL; in data set [5] (isolate PA HP3), 0.25 µg/mL; in data set [5] (isolate PA LF05), 1 µg/mL; in data set [5] (isolate PA M57-15), 1 µg/mL. The MIC turned out to be 0.25 µg/mL in [5] (isolate PA RR05); 0.5 µg/mL in data set [6] (isolate AX 22); 1 µg/mL in [6] (isolate AX RE05); 2 µg/mL in data set [7] (isolate SA EH06); 2 µg/mL in data set [7] (isolate SA LL06); 0.5 µg/mL in data set [8] (isolate J53). For the same molecule, the MIC in data set [8] (isolate J53 + pMG101) was above 20 µg/mL.

Regarding `CC(=O)[O][Ag][c]1n(C)c2c(=O)n(C)c(=O)n(C)c2[n+]1C` [SCC1], the MBC in data set [3] amounted to 8 µg/mL; in [4] (isolate YP1-1CO92-LCR-), 1 µg/mL; in [5] (isolate PA 01-V), 2 µg/mL; in data set [5] (isolate PA HP3), 8 µg/mL; in data set [5] (isolate PA LF05) it was 1 µg/mL; in data set [5] (isolate PA M57-15), 4 µg/mL. In addition, the MBC in data set [5] (isolate PA RR05) was determined as 1 µg/mL; in data set [6] (isolate AX 22), 2 µg/mL; in data set [6] (isolate AX RE05), 8 µg/mL; in data set [7] (isolate SA EH06) it was 20 µg/mL; in data set [7] (isolate SA LL06), 10 µg/mL; in data set [8] (isolate J53), 1 µg/mL. Besides, the MBC in data set [8] (isolate J53 + pMG101) is above 20 µg/mL. In addition, the MIC in data set [3] came to 4 µg/mL; in [4] (isolate YP1-1CO92-LCR-), 0.5 µg/mL; in data set [5] (isolate PA 01-V) it was 1 µg/mL; in data set [5] (isolate PA HP3), 4 µg/mL; in data set [5] (isolate PA LF05), 1 µg/mL; in [5] (isolate PA M57-15), 2 µg/mL. Besides, the MIC was determined as 0.5 µg/mL in data set [5] (isolate PA RR05); 0.5 µg/mL in data set [6] (isolate AX 22); 4 µg/mL in data set [6] (isolate AX RE05); 6 µg/mL in [7] (isolate SA EH06); 8 µg/mL in data set [7] (isolate SA LL06); 1 µg/mL in [8] (isolate J53). Further, the MIC in data set [8] (isolate J53 + pMG101) is above 20 µg/mL.

Consider `NC[C@H]1O[C@H](O[C@H]2[C@H](O)[C@@H](O[C@H]3O[C@H](CO)[C@@H](O)[C@H](N)[C@H]3O)[C@H](N)C[C@@H]2N)[C@H](N)C[C@@H]1O` [Tobramycin, reference compound], for which the MBC in data set [3] (Stenotrophomonas maltophilia, read-out: MBC) was 20 µg/mL (≈ 42.8 µM); in data set [4] (Yersinia pestis), 0.25 µg/mL (≈ 0.535 µM); in [5] (Pseudomonas aeruginosa, isolate PA 01-V, read-out: MBC), above 20 µg/mL; in data set [5] (Pseudomonas aeruginosa, isolate PA HP3, read-out: MBC), 8 µg/mL (≈ 17.1 µM); in data set [5] (Pseudomonas aeruginosa, isolate PA LF05, read-out: MBC), 1 µg/mL (≈ 2.14 µM); in data set [5] (Pseudomonas aeruginosa, isolate PA M57-15, read-out: MBC), 1 µg/mL (≈ 2.14 µM). The MBC is 1 µg/mL (≈ 2.14 µM) in data set [5] (Pseudomonas aeruginosa, isolate PA RR05, read-out: MBC); above 20 µg/mL in data set [6] (Achromobacter xylosoxidans, isolate AX 22, read-out: MBC); above 20 µg/mL in data set [6] (isolate AX RE05); above 20 µg/mL in [7] (Staphylococcus aureus, MRSA, isolate SA LL06, read-out: MBC); above 20 µg/mL in data set [7] (isolate SA EH06); 1 µg/mL (≈ 2.14 µM) in [8] (Escherichia coli, isolate J53, read-out: MBC). Further, the MBC in data set [8] (isolate J53 + pMG101) stood at 1 µg/mL. Further, the MIC in data set [3] (Stenotrophomonas maltophilia, read-out: MIC) came out at 8 µg/mL (≈ 17.1 µM); in [4] (Yersinia pestis), 0.25 µg/mL (≈ 0.535 µM); in data set [5] (Pseudomonas aeruginosa, isolate PA 01-V, read-out: MIC), 15 µg/mL (≈ 32.1 µM); in data set [5] (Pseudomonas aeruginosa, isolate PA HP3, read-out: MIC), 4 µg/mL (≈ 8.56 µM); in data set [5] (Pseudomonas aeruginosa, isolate PA LF05, read-out: MIC) it was 0.5 µg/mL (≈ 1.07 µM); in [5] (Pseudomonas aeruginosa, isolate PA M57-15, read-out: MIC), 0.5 µg/mL (≈ 1.07 µM). Further, the MIC was 0.5 µg/mL (≈ 1.07 µM) in [5] (Pseudomonas aeruginosa, isolate PA RR05, read-out: MIC); above 20 µg/mL in data set [6] (Achromobacter xylosoxidans, isolate AX RE05, read-out: MIC); 20 µg/mL (≈ 42.8 µM) in data set [6] (Achromobacter xylosoxidans, isolate AX 22, read-out: MIC); above 20 µg/mL in [7] (Staphylococcus aureus, MRSA, isolate SA LL06, read-out: MIC); above 20 µg/mL in [7] (isolate SA EH06); 1 µg/mL (≈ 2.14 µM) in [8] (Escherichia coli, isolate J53, read-out: MIC). In [8] (isolate J53 + pMG101), the MIC stood at 1 µg/mL.

Turning to “silver nitrate [AgNO3, reference compound]”, the “growth(+) or no growth(−)” value in data set [9] (setting [18]) was “−”; in data set [9] (Day 1, supernatant x 1DF), “+”; in data set [9] (Day 1, supernatant x 2DF), “+”; in data set [9] (Day 1, supernatant x 3DF), “+”; in data set [9] (Day 1, supernatant x 4DF) it was “+”; in data set [9] (setting [19]), “+”. The “growth(+) or no growth(−)” value is recorded as “−” in data set [15] (setting [18]); “+” in data set [15] (Day 1, supernatant x 1DF); “+” in [15] (Day 1, supernatant x 2DF); “+” in data set [15] (Day 1, supernatant x 3DF); “+” in data set [15] (Day 1, supernatant x 4DF); “+” in data set [15] (setting [19]). Further, the “growth(+) or no growth(−)” value in [17] (supernatant undiluted (Ag: 103 1186, 105 1125, AgN03 3176)) is “+”; in data set [17] (supernatant x 1DF), “+”; in [17] (supernatant x 2DF), “+”; in data set [17] (supernatant x 3DF), “+”; in data set [17] (supernatant x 4DF) it was “+”. In addition, the “growth / no growth” value in data set [10] (setting [20]), in data set [10] (setting [21]), in [10] (setting [22]), in data set [10] (setting [23]), in data set [10] (setting [24]) and in data set [10] (setting [25]) was “−” each time. Further, the “growth / no growth” value was “−” in [10] (setting [26]); “−” in [10] (setting [27]); “+” in data set [10] (setting [28]); “−” in [10] (setting [29]); “−” in [11] (setting [20]); “−” in data set [11] (setting [21]). The “growth / no growth” value in data set [11] (setting [22]), in data set [11] (setting [23]), in [11] (setting [24]), in data set [11] (setting [25]), in data set [11] (setting [26]) and in data set [11] (setting [27]) was “−” each time. The “growth / no growth” value in data set [11] (setting [28]) is given as “+”; in data set [11] (setting [29]) it was “−”; in [16] (setting [20]), “−”; in data set [16] (setting [21]) it was “−”; in [16] (setting [22]), “−”; in data set [16] (setting [23]) it was “−”. For the same molecule, the “growth / no growth” value in data set [16] (setting [24]), in data set [16] (setting [25]), in [16] (setting [26]), in data set [16] (setting [27]), in data set [16] (setting [28]) and in data set [16] (setting [29]) was “−” each time. Moreover, the “Diameter of Inhibited Area” value is given as 10.88 mm in data set [12], 11.38 mm in data set [13] and 11 mm in [14].
